Values quoted from earlier work, collected in US20110145936A1, “Genetically Modified Rat Models for Pharmacokinetics” (priority 2009, published 2011).
Values belong to the compound of their own block, whether it stands above or below them.

How the values were obtained:
[1] = system: leukemia cell lines which express high levels of Slc29a1; details: graded levels of azacytidine in the presence of a tight binding Slc29a1 inhibitor
Slc22a8 = Slc22a8 (Mus musculus, UniProt Q9WTW5); details: gene Slc22a8
Abcg2 = target: T1, Abcg2 (Mus musculus, UniProt Q7TMS5); details: Abcg2-/- mice vs WT
T1 construct: host or cells: whole animal: WT mice versus Abcg2-/- mice
T1 sequence (Q7TMS5 1-657): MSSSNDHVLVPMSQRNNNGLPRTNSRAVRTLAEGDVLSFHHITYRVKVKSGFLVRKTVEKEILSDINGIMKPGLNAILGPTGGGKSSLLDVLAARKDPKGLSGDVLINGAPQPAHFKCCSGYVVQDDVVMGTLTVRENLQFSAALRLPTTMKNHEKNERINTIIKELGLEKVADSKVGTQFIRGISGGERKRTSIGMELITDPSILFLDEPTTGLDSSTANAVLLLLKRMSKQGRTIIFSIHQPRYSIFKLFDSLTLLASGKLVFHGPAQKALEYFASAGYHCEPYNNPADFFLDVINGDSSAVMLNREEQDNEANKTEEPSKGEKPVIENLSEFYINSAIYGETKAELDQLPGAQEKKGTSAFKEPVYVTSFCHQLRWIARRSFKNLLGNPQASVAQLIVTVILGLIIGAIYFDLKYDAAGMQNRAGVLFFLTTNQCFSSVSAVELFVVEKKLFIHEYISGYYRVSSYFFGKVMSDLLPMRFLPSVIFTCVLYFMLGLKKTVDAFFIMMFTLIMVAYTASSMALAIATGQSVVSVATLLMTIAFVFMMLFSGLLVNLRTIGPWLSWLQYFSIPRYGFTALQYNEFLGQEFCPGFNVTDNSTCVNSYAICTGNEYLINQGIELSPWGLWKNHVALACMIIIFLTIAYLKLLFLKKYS

Slc7a11 = target: T2, Slc7a11 (Homo sapiens, UniProt Q9UPY5); details: WT Slc7a11 cells; more sensitive to the GA analog
T2 sequence (Q9UPY5 1-501): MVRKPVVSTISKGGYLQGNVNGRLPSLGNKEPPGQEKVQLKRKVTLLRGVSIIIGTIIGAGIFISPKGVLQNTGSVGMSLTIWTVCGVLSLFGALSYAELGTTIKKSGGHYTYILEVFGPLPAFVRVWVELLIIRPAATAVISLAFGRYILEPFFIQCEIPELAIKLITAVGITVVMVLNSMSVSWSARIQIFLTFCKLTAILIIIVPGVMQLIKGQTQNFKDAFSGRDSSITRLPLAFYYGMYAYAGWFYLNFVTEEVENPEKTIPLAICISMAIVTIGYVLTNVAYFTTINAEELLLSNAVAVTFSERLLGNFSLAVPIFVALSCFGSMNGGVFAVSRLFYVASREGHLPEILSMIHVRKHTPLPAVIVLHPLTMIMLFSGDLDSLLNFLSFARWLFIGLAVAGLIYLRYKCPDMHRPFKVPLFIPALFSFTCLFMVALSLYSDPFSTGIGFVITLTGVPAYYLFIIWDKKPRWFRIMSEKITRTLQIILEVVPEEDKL
T2 sequence (P08195 1-529 partner): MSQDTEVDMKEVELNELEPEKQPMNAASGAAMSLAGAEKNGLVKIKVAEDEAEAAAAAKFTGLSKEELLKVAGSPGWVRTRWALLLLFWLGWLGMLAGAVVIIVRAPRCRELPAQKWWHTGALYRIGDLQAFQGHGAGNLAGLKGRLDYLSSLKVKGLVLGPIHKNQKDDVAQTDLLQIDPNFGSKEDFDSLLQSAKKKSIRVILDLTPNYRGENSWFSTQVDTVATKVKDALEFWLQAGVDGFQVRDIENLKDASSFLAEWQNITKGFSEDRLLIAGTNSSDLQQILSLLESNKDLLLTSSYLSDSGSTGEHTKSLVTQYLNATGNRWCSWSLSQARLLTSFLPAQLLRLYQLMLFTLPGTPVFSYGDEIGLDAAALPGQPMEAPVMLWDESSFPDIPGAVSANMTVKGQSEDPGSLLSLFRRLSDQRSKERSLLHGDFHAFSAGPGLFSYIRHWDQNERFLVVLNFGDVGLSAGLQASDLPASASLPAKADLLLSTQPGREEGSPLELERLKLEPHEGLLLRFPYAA

Abcc1 = Abcc1 (Mus musculus, UniProt O35379); details: for white blood cell, bone marrow nucleated cell and spleen myeloid activity: Abcc1 KO mice after etoposide
Abcb1 = details: for direct liver mediated excretion: Abcb1-/- vs WT mice, cannulation of the gall bladder
Abcg2 & Abcb1 = details: gene Abcg2 & Abcb1
Abcb11 = Abcb11 (Mus musculus, UniProt Q9QY30)
Chain of Abcb11 (Q9QY30 whole entry): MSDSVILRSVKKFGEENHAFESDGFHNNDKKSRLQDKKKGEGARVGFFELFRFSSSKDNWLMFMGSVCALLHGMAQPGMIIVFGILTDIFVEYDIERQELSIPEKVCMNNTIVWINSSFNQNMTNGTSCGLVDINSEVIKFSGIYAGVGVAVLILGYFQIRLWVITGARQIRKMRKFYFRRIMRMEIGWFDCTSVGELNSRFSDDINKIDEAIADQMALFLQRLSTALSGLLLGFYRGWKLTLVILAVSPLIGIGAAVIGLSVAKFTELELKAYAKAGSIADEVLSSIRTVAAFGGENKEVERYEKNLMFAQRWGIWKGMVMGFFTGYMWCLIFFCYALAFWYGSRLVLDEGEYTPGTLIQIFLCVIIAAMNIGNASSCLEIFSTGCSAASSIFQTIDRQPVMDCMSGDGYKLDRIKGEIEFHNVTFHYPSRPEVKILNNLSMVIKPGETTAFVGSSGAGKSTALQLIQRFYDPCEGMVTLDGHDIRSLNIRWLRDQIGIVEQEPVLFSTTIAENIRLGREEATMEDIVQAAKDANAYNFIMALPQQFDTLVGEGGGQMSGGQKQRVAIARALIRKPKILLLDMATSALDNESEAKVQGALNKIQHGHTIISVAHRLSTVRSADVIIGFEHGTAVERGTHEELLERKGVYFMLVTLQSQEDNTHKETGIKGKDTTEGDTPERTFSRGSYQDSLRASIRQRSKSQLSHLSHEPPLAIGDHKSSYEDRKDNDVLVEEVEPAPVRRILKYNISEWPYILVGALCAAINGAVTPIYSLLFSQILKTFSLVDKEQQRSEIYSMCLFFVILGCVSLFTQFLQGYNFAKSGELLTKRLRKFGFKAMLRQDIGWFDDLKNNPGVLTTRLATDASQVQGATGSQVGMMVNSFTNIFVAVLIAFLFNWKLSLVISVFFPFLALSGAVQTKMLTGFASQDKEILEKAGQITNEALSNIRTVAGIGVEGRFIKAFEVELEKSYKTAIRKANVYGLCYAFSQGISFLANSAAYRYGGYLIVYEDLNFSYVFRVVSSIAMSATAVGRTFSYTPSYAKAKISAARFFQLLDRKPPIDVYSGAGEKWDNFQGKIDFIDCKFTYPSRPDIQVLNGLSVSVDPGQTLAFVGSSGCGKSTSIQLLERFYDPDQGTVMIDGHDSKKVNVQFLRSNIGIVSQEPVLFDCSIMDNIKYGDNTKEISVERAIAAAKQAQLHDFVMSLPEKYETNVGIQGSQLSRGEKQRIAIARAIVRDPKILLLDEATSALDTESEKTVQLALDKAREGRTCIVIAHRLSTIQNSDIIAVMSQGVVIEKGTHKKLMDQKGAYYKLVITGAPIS

Chain of Abcc1 (O35379 whole entry): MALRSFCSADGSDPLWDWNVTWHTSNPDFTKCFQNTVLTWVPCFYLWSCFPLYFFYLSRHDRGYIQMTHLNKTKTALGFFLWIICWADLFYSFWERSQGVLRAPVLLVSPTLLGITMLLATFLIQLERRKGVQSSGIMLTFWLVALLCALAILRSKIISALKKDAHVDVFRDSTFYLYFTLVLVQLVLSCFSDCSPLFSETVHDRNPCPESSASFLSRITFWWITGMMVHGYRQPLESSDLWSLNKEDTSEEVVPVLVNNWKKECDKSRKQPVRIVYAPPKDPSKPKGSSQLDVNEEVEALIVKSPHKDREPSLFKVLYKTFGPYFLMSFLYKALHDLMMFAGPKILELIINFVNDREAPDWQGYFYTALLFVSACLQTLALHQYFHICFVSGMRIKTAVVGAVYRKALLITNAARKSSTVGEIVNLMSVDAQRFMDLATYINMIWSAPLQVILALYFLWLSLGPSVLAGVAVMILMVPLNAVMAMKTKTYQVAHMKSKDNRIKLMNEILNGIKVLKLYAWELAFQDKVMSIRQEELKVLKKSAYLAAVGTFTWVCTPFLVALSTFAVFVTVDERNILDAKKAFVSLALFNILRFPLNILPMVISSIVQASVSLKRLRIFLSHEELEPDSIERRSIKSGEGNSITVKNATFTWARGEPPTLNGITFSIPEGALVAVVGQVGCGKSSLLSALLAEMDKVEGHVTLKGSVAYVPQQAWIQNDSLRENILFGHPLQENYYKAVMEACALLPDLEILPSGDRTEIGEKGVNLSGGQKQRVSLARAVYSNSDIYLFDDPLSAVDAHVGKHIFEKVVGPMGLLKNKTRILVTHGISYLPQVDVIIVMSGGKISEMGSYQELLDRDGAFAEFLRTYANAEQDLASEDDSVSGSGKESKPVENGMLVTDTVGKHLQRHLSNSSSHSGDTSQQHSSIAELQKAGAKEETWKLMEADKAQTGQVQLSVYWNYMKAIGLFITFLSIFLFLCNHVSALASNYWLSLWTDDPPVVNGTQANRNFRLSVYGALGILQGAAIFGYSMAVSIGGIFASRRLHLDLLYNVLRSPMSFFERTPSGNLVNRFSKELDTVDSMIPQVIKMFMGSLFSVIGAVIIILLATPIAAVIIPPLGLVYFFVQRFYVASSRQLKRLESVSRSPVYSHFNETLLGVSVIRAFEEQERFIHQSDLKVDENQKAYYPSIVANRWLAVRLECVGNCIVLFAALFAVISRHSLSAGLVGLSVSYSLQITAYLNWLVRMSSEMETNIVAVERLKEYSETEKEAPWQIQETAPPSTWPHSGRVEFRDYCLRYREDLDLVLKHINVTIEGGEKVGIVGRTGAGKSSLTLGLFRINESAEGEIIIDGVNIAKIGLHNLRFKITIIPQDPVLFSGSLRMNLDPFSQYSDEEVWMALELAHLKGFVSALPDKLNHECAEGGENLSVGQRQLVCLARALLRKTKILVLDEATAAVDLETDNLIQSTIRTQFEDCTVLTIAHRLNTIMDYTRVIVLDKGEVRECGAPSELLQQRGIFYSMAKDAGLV
Chain of Slc22a8 (Q9WTW5 whole entry): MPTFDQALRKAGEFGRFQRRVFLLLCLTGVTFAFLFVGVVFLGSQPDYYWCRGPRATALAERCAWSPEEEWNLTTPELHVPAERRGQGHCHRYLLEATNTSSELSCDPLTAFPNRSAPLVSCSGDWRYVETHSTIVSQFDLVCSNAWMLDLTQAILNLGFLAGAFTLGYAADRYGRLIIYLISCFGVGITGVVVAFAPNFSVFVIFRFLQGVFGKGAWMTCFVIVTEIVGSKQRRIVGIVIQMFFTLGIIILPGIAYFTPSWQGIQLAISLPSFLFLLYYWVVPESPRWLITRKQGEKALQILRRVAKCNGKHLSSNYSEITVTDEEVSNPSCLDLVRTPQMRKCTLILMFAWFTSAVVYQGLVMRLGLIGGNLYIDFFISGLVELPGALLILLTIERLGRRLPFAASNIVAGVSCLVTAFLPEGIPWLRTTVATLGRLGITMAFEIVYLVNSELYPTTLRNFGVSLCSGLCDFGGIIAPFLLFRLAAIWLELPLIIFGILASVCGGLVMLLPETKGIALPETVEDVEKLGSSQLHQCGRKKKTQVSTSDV

SMILES: Nc1ncn([C@@H]2O[C@H](CO)[C@@H](O)[C@H]2O)c(=O)n1 [azacytidine]
loss in cytotoxicity [1]: > 10 fold

Drug resistance/sensitivity (Slc22a8): Histamine (S),
SMILES: NCCc1c[nH]cn1 [Histamine]

SMILES: Cn1c(N)nc2ncc(-c3ccccc3)cc21 [PhIP]
concentration (Abcg2): higher concentration | intestinal excretion (Abcg2): highly impaired

sensitivity relative to GA (Slc7a11): 7.2 fold
SMILES: C=CCNC1=C2C[C@@H](C)C[C@H](OC)[C@H](O)[C@@H](C)/C=C(\C)[C@H](OC(N)=O)[C@@H](OC)/C=C\C=C(/C)C(=O)NC(=CC1=O)C2=O [17AAG, 17-(allyl-amino)-17 denethoxygelandomycin]

SMILES: COc1cc([C@@H]2c3cc4c(cc3[C@@H](O[C@@H]3O[C@@H]5CO[C@@H](C)O[C@H]5[C@H](O)[C@H]3O)[C@H]3COC(=O)[C@H]23)OCO4)cc(OC)c1OP(=O)(O)O [Etoposide phosphate]
toxicity in transporter deficient mice compared to WT (Abcc1; Abcc1-/- vs WT mice, single dose): twice as toxic | white blood cell, bone marrow nucleated cell and spleen myeloid activity (Abcc1): severe depletion

direct liver mediated excretion (Abcb1): moderate decrease
SMILES: C[C@H]1O[C@@H](O[C@H]2[C@@H](O)C[C@H](O[C@H]3[C@@H](O)C[C@H](O[C@H]4CC[C@@]5(C)[C@H](CC[C@@H]6[C@@H]5C[C@@H](O)[C@]5(C)[C@@H](C7=CC(=O)OC7)CC[C@]65O)C4)O[C@@H]3C)O[C@@H]2C)C[C@H](O)[C@@H]1O [digoxin]

direct liver mediated excretion (Abcb1): moderate decrease | organ penetration (Abcb1; brain, ovaries, adrenal gland and intestine of Abcb1-/- mice): increased penetration
SMILES: CC(=O)O[C@H]1C(=O)[C@@]2(C)[C@H]([C@H](OC(=O)c3ccccc3)[C@]3(O)C[C@H](OC(=O)[C@H](O)[C@@H](NC(=O)c4ccccc4)c4ccccc4)C(C)=C1C3(C)C)[C@]1(OC(C)=O)CO[C@@H]1C[C@@H]2O [paclitaxel]

SMILES: COc1cc([C@@H]2c3cc4c(cc3[C@@H](O[C@@H]3O[C@@H]5CO[C@@H](C)O[C@H]5[C@H](O)[C@H]3O)[C@H]3COC(=O)[C@H]23)OCO4)cc(OC)c1O [Etoposide]
white blood cell, bone marrow nucleated cell and spleen myeloid activity (Abcc1): depleted in Abcc1 mice. | Drug resistance/sensitivity (Abcc1; gene Abcc1): Etoposide (S)

SMILES: C(=N\NC1=NCCN1)/c1c2ccccc2c(/C=N/NC2=NCCN2)c2ccccc12 [Bisantrene]
Drug resistance/sensitivity (Abcg2 & Abcb1): Taxol analog (S),

SMILES: C[C@H](CCC(=O)NCCS(=O)(=O)O)[C@H]1CC[C@H]2[C@@H]3[C@H](O)C[C@@H]4C[C@H](O)CC[C@]4(C)[C@H]3C[C@H](O)[C@]12C [Taurocholate]
bile acid output increase (Abcb11; WT mice after Taurocholate injection): output; WT mice show a 20-fold | taurocholate output increase (Abcb11; WT mice after tail vein injection): 20 fold
